In US20250375417A1, “OREXIN RECEPTOR 2 (OX2R) AGONIST FOR USE IN NARCOLEPSY TYPE 1 (NT1)” (TAKEDA PHARMACEUTICAL COMPANY LIMITED, priority 2024, published 2025):

How the values were obtained:
Type in all cases: in vivo, human
[1] = system: participants with NT2; test: ESS total score, Phase 2 NT2 trial; details: not statistically significant (p>0.05)
Text: In some aspects of the methods described herein, the subject experiences a lower Epworth Sleepiness Scale (ESS) total score after a treatment period compared to an untreated subject. The ESS is a subjective, self-administered scale that has been validated and used extensively as a key endpoint in studies in patients with narcolepsy to measure excessive daytime sleepiness (EDS). The ESS provides individuals with 8 different situations of daily life and asks them how likely they are to fall asleep in those situations (scored 0 to 3) and to try to imagine their likelihood of dozing even if they have not actually been in the identical situation; the scores are summed to give an overall score of 0 to 24. Higher scores indicate stronger subjective daytime sleepiness, and scores below 10 are considered to be within the reference range.
Randomization was stratified by region. Starting on the morning of Day 1, the study drug was administered at approximately the same time each day for 8 weeks.
In this study, the interventions includes: • Dose Regimen 1:2 mg followed by 2 mg approximately 3 hours apart. • Dose Regimen 2:2 mg followed by 5 mg approximately 3 hours apart or 7 mg once daily. • Other products required for the study: placebo.
Eligible participants were age 18-70 years, with Epworth Sleepiness Scale (ESS) score>12 and no other current EDS-related medical conditions. […]

[2] = system: participants with NT1; test: At-home continuous accelerometry of sleep, Phase 2 NT1 trial
Text: Polysomnography (PSG) was collected at baseline and after 27 and 54 days of treatment. Sleep was manually scored following AASM guidelines; sleep metrics were extracted then computed by whole night and by quarter-night. Continuous accelerometry (Empatica EmbracePlus watch) allowed assessment of sleep in a naturalistic manner at home. Daily sleep diaries were used to capture subjective reports. Mixed effects models were fit with treatment, quarter-night, visit, and their interactions as fixed effects and random intercepts per subject. A reference PSG dataset (Vilela M, et al. J Sleep Res 2024; e14216) from CHU Montpellier (49 clinical controls and 114 patients with NT1, all drug-free) was analyzed to establish DNS characteristics of NT1.
Consistent with sleep diaries, adverse events of mild to moderate insomnia were reported by 48% of Compound A-treated participants and most resolved within 1 week. […] Conclusion: Treatment with Compound A may help normalize REM architecture and reduce disturbing dreams without changing WASO or deep sleep.

[3] = system: participants with NT2; test: Safety (TEAEs), long-term extension (LTE) study, NT2 participants
Description: Eligible participants were age 18-70 years, with Epworth Sleepiness Scale (ESS) score>12 and no other current EDS-related medical conditions. Participants were randomized 1:1:1 to daily oral Compound A 2 mg twice 3 hours apart, 2 mg then 5 mg 3 hours later, or placebo. Study endpoints included change from baseline to Week 8 in mean Sleep Onset Latency on the Maintenance of Wakefulness Test (mean SOL-MWT; primary endpoint), ESS total score, and incidence of treatment-emergent adverse events (TEAEs). Participants who completed the placebo-controlled study could enroll in a ˜2-year Long Term Extension (LTE) study. LTE TEAE data up to Jan. 25, 2024 are reported.
This was a phase 2/3 multicenter, dose-blind, long-term extension (LTE) study of Compound A. Participants from controlled studies conducted with Compound A, who had up to a 3-month dosing gap between their parent study and the screening period for this study, were eligible to participate in this study.
Day 1 dosing for all participants occurred in-clinic with PK and safety assessments. Participants who were undergoing nocturnal polysomnography (nPSG) and an MWT during the final assessment of their Compound A parent study had the option of staying overnight in the clinic on Day −1 so they were already in the clinic for Day 1 the following day. […]

## CCS(=O)(=O)N[C@@H]1[C@H](Cc2cccc(-c3cc(F)cc(F)c3)c2F)N(C(=O)C(C)(C)O)CC1(F)F [Compound A, N-{(2S,3R)-4,4-difluoro-1-(2-hydroxy-2-methylpropanoyl)-2-[(2,3′,5′-trifluoro[1,1′-biphenyl]-3-yl)methyl]pyrrolidin-3-yl}ethanesulfonamide]
[1]; 2 mg/2 mg
  ESS total score change from baseline to Week 8 versus placebo: −0.32 points
[1]; 2/5 mg
  ESS total score change from baseline to Week 8 versus placebo: −3.06 points
[2]; 2 mg/2 mg cohort (FIG. 7)
  Number of nocturnal awakenings, awakenings >5 min and longest sleep bout (accelerometry): small but statistically significant reductions
[2]; accelerometry, overall (FIG. 7)
  At-home nighttime TST and WASO, change from baseline: minimal changes overall
[2]; week 1 only, 2 mg/5 mg and 7 mg QD cohorts, resolving over time
  At-home TST: reduced TST was observed
[3]
  Participants discontinued due to TEAEs: 3
[3]; treated participants (41/57), data up to Jan. 25, 2024
  Participants who experienced TEAEs: 71.9%
